Target: thromboxane A2 receptor (TBXA2R) (Gα12) (Homo sapiens, UniProt P21731)
Assay: BRET² G protein dissociation assay, TBXA2R with Gα12
Type: cell-based
Conditions: for Mean (plotted), G protein dissociation BRET² signal: TBXA2R-G12, Fig. 5c source data
Procedure: G protein dissociation assays were performed according to the original protocols of the TRUPATH BRET² assay[47],[87] but with subtle modifications as previously described[61],[88],[89]. All reagents and cells were obtained from Thermo Fisher Scientific unless indicated otherwise. The coding sequences for the G protein biosensors[47] (Gα12-Rluc8, Gα13-Rluc8, wt Gβ3, and Gγ9-GFP), the wt GPR55, the construct used for cryo-EM (with GFP bearing a G67A mutation to disrupt fluorescence properties[48] for BRET² assays), GPR55 binding pocket mutants (G152^4.56F, G152^4.56W, N171^ECL2Q, N171^ECL2A, T176^5.33A, R253^6.62A), and the wt TBXA2R were codon-optimized for Homo sapiens, gene-synthesized, and sub-cloned into pcDNA^TM3.1(+) between NheI and HindIII restriction sites by GeneArt (Thermo Fisher Scientific). […] Freshly grown cells were washed with Dulbecco’s Balanced Salt Solution (DPBS, cat. #14200075) and detached using trypsin-ethylenediaminetetraacetic acid (trypsin-EDTA) (cat. #25300-062). Then, the cells were reconstituted to 500,000 cells per mL with fresh medium, and 1,000,000 cells were seeded into each well of a 6-well plate. After 3 h incubation at 37 °C and 5% CO2, adherent cells were transfected with 600 ng DNA (1:1:1:1 ratio of plasmid DNA for GPR55, wt Gβ3, Gγ9-GFP, and Gα12-Rluc8 or Gα13-Rluc8). Plasmid DNA was mixed with 1.5 µL Lipofectamine^TM 2000 (cat. #11668027) in Opti-MEM^TM medium (cat. #31985062) and incubated for 20 min. Then, the mixture was added to each well of the 6-well plate following 24 h incubation at 37 °C and 5% CO2. Transfected cells were washed with DPBS, detached using EDTA (Versene, cat. #15040066), and reconstituted into fresh medium at 500,000 cells mL^−1. From this suspension, 50,000 cells were seeded into each well of a white-bottom 96-well plate (Nunc^TM MicroWell^TM 96 wells, cat. #136101) following overnight incubation at 37 °C and 5% CO2. Then, the adherent cells were washed with assay medium [Hank’s balanced salt solution (HBSS, cat. #14065056) plus 20 mM HEPES pH 7.4 (cat. #15630056)] and finally reconstituted into 50 µL of the same medium. […] Methoxy e-Coelenterazine was used as luciferase substrate (Prolume Purple, NanoLight Technology, cat. #369), reconstituted at 1 mM in methanol and diluted to 37.5 µM with assay buffer (7.5 µM final assay concentration). The assay was started by the addition of 20 µL luciferase substrate to each well of the assay plate using a Multidrop^TM Combi reagent dispenser (Thermo Fisher Scientific), followed by 5 min incubation at room temperature. Then, 30 µL of agonist dilutions or DMSO control was added (final DMSO concentration 1.5%), followed by an additional 5 min incubation at room temperature. BRET² measurements were performed with a PHERAstar® FSX microplate reader (BMG LABTECH) using a BRET² filter (donor emission 370–450 nm, acceptor emission 500–530 nm) at the maximum fluorescence gain of 3600. BRET² ratios were calculated by dividing GFP emission signals from Rluc8 emission counts. Buffer-DMSO controls were subtracted from each data point to calculate ΔBRET² ratios. The half-maximal effective concentration (potency, EC50) and maximal effect (efficacy, Emax) were determined by sigmoidal dose-response curve fit with variable slope.

Sequence of thromboxane A2 receptor (TBXA2R) (Gα12) (P21731 whole entry, species assumed): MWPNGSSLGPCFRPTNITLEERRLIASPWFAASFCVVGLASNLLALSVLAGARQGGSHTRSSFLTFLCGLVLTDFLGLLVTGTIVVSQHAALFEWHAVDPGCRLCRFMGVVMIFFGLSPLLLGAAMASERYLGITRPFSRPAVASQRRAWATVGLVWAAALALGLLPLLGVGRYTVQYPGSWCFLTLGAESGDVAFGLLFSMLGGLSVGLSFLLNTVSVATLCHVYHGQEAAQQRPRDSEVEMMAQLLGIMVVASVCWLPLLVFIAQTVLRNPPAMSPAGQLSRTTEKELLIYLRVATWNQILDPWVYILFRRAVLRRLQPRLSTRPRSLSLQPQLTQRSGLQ
Sequence of thromboxane A2 receptor (TBXA2R) (Gα12) (Q03113 whole entry partner, species assumed): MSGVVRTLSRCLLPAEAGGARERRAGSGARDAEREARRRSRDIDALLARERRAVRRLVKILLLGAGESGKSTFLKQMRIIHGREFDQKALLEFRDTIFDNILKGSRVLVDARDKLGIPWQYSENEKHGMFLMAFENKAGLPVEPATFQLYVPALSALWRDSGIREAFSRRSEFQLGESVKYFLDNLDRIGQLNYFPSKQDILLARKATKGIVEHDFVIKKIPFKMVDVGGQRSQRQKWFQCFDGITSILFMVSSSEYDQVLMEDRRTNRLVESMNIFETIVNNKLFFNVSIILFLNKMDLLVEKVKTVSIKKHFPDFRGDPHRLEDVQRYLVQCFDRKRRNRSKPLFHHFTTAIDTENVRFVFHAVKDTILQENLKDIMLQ
Sequence of thromboxane A2 receptor (TBXA2R) (Gα12) (P16520 whole entry partner, species assumed): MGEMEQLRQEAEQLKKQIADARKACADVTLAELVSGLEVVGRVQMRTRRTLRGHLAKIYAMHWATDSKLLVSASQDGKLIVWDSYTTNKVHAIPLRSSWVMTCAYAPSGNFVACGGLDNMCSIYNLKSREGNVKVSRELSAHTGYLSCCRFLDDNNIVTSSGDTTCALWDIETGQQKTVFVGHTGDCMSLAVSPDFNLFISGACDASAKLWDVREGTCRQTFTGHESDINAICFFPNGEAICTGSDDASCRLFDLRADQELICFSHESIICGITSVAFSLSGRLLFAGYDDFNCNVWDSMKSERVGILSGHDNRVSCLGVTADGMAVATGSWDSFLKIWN
Sequence of thromboxane A2 receptor (TBXA2R) (Gα12) (O14610 1-66 partner limits assumed, species assumed): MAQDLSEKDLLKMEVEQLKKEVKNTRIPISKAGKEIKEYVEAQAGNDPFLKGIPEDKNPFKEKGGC

| Compound | Mean (plotted), G protein dissociation BRET² signal (concentration 300 pM) | Mean (plotted), G protein dissociation BRET² signal (concentration 1e-9 M) | Mean (plotted), G protein dissociation BRET² signal (concentration 3e-9 M) | Mean (plotted), G protein dissociation BRET² signal (concentration 1e-8 M) | Mean (plotted), G protein dissociation BRET² signal (concentration 3e-8 M) | Mean (plotted), G protein dissociation BRET² signal (concentration 1e-7 M) | Mean (plotted), G protein dissociation BRET² signal (concentration 3e-7 M) | Mean (plotted), G protein dissociation BRET² signal (concentration 1e-6 M) | Mean (plotted), G protein dissociation BRET² signal (concentration 3e-6 M) | Mean (plotted), G protein dissociation BRET² signal (concentration 1e-5 M) | Mean (plotted), G protein dissociation BRET² signal (concentration 3e-5 M) | Efficacy ± SEM (%) (TBXA2, Gα12) | pEC50 ± SEM (TBXA2, Gα12) | EC50 (TBXA2R via Gα12, read-out: potency (EC50)) | Mean (plotted), G protein dissociation BRET² signal (concentration 10 pM) | Mean (plotted), G protein dissociation BRET² signal (concentration 30 pM) | Mean (plotted), G protein dissociation BRET² signal (concentration 100 pM) |
| --- | --- | --- | --- | --- | --- | --- | --- | --- | --- | --- | --- | --- | --- | --- | --- | --- | --- |
| Cc1cccc(N2CCN(C(=O)c3cc(S(=O)(=O)N(C)C)ccc3N3CCCC3)CC2)c1C [ML184, 3-[[4-(2,3-dimethylphenyl)-1-piperazinyl]carbonyl]-N,N-dimethyl-4-(1-pyrrolidinyl)benzenesulfonamide] | 0.004412 | 0.004455 | 0.002143 | 0.001783 | 0.001091 | -3.229e-5 | 0.0009853 | 0.004147 | 0.0053 | 0.009359 | 0.007653 |  |  |  |  |  |  |
| CCCCC[C@H](O)/C=C/[C@@H]1[C@@H](C/C=C\CCCC(=O)O)[C@H]2CO[C@@H]1C2 [U-46619] | -0.007 | -0.0104 | -0.01228 | -0.02818 | -0.04678 | -0.06592 | -0.07783 | -0.08315 |  |  |  | 100 ± 8% | 7.62 ± 0.15 | 24 nM | 0.003425 | 0.003325 | -0.00015 |

— PMC11861906, “Structural basis for lipid-mediated activation of G protein-coupled receptor GPR55” (Nature Communications, 2025)
